Source: patent publication US20110053991A1, “Treatment of Histone Deacetylase Mediated Disorders” (priority 2007, published 2011)
One block for each compound: values may come before it.

Assays:
Format in all cases: cell-based
HSB-2 = experiment: MTT assay, cell number relative to vehicle; conditions: HSB2, HSB-2 (LCK-TCRβ), T Cell Lymphoblastic Leukemia, 48 hours
[1] = test system: mixed lineage leukemia cell lines; experiment: Apoptotic and dead cells by flow cytometry (YO-PRO-1 / propidium iodide); conditions: 48 hours; FIG. 2
Experimental: Apoptotic and dead cells were identified by flow cytometric analysis of cells stained with propidium iodide and YO-PRO®-1. Cells undergoing apoptosis are stained with YO-PRO®-1, but are impermeable to propidium iodide. Dead cells and cells in late apoptosis are permeable to both dyes. Viable cells are not stained by either dye. Mean (+/−SEM) percentages of apoptotic and dead cells were derived from 3-7 independent experiments.
(§1) Alternatively, an ALL cell line (REH) was treated with Trichostatin A (TSA), sodium phenyl butyrate (SPB), or vehicle only for 48 hours. MTT or BrdU were added for 4 hours. The relative number of viable cells, as indicated by MTT reduction, was determined (FIG. 1A and Table 1). The relative number of proliferating cells, as indicated by BrdU-incorporation, was measured using an ELISA assay (FIG. 1B). IC50 values were calculated using non-linear regression (Table 1). The percentages of apoptotic and dead cells were determined by flow cytometric analysis of cells stained with YO-PRO®-1 and propidium iodide (FIGS. 2 and 5A). DNA content was determined by flow cytometric analysis of propidium iodide stained cells. The fractions of cells with G1, S, and G2/M phase DNA contents were determined (FIGS. 3 and 5B).

REH = experiment: MTT assay, cell number relative to vehicle; conditions: Homo sapiens, REH (TEL-AML1), B Cell Lymphoblastic Leukemia, 48 hours
Experimental: as §1

HL-60 = experiment: MTT assay, cell number relative to vehicle; conditions: Homo sapiens, HL-60, Myeloid Leukemia, 48 hours
Molm-13 = experiment: MTT assay, cell number relative to vehicle; conditions: Homo sapiens, Molm-13 (MLL-AF9), Biphenotypic Leukemia with Myeloid Features, 48 hours
EOL-1 = experiment: MTT assay, cell number relative to vehicle; conditions: Homo sapiens, EOL1, EOL-1 (FIP1L1-PDGFRα), Myeloid Leukemia, 48 hours
MV4-11 = experiment: MTT assay, cell number relative to vehicle; conditions: Homo sapiens, MV4-11 (MLL-AF4), Biphenotypic Leukemia with Myeloid Features, 48 hours
HAL-01 = experiment: MTT assay, cell number relative to vehicle; conditions: Homo sapiens, HAL-01 (TCF3/E2A-HLF), B Cell Lymphoblastic Leukemia, 48 hours
RCH-AcV = experiment: MTT assay, cell number relative to vehicle; conditions: RCH-AcV (E2A-PBX1), B Cell Lymphoblastic Leukemia, 48 hours
SEM cells = experiment: MTT assay, cell number relative to vehicle; conditions: SEM (MLL-AF4), Biphenotypic Leukemia with Lymphoblastic Features, 48 hours
RS4; 11 = experiment: MTT assay, cell number relative to vehicle; conditions: Homo sapiens, 11 (MLL-AF4), Biphenotypic Leukemia with Lymphoblastic Features, 48 hours
NOMO-1 = experiment: MTT assay, cell number relative to vehicle; conditions: Homo sapiens, NOMO-1 (MLL-AF9), Biphenotypic Leukemia with Myeloid Features, 48 hours
HEL = experiment: MTT assay, cell number relative to vehicle; conditions: Homo sapiens, Myeloid Leukemia, 48 hours
Molm-14 = experiment: MTT assay, cell number relative to vehicle; conditions: Homo sapiens, Molm-14 (MLL-AF9), Biphenotypic Leukemia with Myeloid Features, 48 hours
Molt-3 = experiment: MTT assay, cell number relative to vehicle; conditions: Homo sapiens, Molt-3, T Cell Lymphoblastic Leukemia, 48 hours
U937 = experiment: MTT assay, cell number relative to vehicle; conditions: Homo sapiens, U-937, U937, Myeloid Leukemia, 48 hours
UOCB1 = experiment: MTT assay, cell number relative to vehicle; conditions: Homo sapiens, UoC-B1, UOCB1 (E2A-HLF), B Cell Lymphoblastic Leukemia, 48 hours
KG1 = experiment: MTT assay, cell number relative to vehicle; conditions: Homo sapiens, KG-1, KG1, Myeloid Leukemia, 48 hours
KOPN-8 = experiment: MTT assay, cell number relative to vehicle; conditions: Homo sapiens, KOPN-8 (MLL-ENL), Biphenotypic Leukemia with Lymphoblastic Features, 48 hours
THP-1 = experiment: MTT assay, cell number relative to vehicle; conditions: Homo sapiens, THP-1 (MLL-AF9), Biphenotypic Leukemia with Myeloid Features, 48 hours
CEM = experiment: MTT assay, cell number relative to vehicle; conditions: Homo sapiens, CCRF-CEM, T Cell Lymphoblastic Leukemia, 48 hours
Molt-4 = experiment: MTT assay, cell number relative to vehicle; conditions: Homo sapiens, Molt-4, T Cell Lymphoblastic Leukemia, 48 hours
Nalm-6 = experiment: MTT assay, cell number relative to vehicle; conditions: Homo sapiens, Nalm-6 (PDGFRβ-TEL), B Cell Lymphoblastic Leukemia, 48 hours
Jurkat = experiment: MTT assay, cell number relative to vehicle; conditions: Homo sapiens, T Cell Lymphoblastic Leukemia, 48 hours

IC50 (HL-60): 690 nM
IC50 (Molm-13): 758 nM
IC50 (MV4-11): 362 nM
IC50 (RS4; 11): 2420 nM
IC50 (Molm-14): 839 nM
IC50 (Molt-3): 866 nM
IC50 (U937): 1000 nM
IC50 (THP-1): 4450 nM
IC50 (Molt-4): 721 nM
IC50 (Jurkat): 1270 nM
Structure (SMILES): Nc1ccccc1NC(=O)c1ccc(CNC(=O)OCc2cccnc2)cc1 [entinostat, N-(2-aminophenyl)-4-(N-(pyridin-3-ylmethoxycarbonyl)aminomethyl)benzamide]
IC50 (HSB-2): 1290 nM
induction of cell death (apoptotic and dead cells) [1]: dose-dependent cell death
IC50 (REH): 1500 nM
IC50 (EOL-1): 120 nM
IC50 (HAL-01): 499 nM
IC50 (RCH-AcV): 723 nM
IC50 (SEM cells): 250 nM
IC50 (NOMO-1): 587 nM
IC50 (HEL): 957 nM
IC50 (UOCB1): 686 nM
IC50 (KG1): 1540 nM
IC50 (KOPN-8): 396 nM
IC50 (CEM): 1280 nM
IC50 (Nalm-6): 801 nM

IC50 (Jurkat): 810 nM
Structure (SMILES): O=C(CCCCCCC(=O)Nc1ccccc1)NO [vorinostat, N′-hydroxy-N-phenyl-octanediamide]
induction of cell death (apoptotic and dead cells) [1]: dose-dependent cell death
